Measurements published in publication PMC12794274, “Therapeutic potential of Sheng-Xian-Tang in doxorubicin-induced chronic heart failure by regulation of phenylalanine metabolism disruption” (Chinese Medicine, 2026).
pKd: −log10 of the molar value. Where “and” joins values, the source holds several entries; their conditions need not be identical. Equal values may be shown once.

How the values were obtained:
AML12 cells [1] = assay: AML12 cell viability (CCK8); type: cell-based
Method: (§1) Mouse hepatocellular cell lines (AML12), purchased from the Shanghai Cell Bank of Chinese Academy of Sciences (Shanghai, China), were cultured in Dulbecco’s Modified Eagle Medium (DMEM) supplemented with 10% fetal bovine serum (FBS) and 2 mM L-glutamine and 1% pyruvate and maintained at 37 °C in a […], 5% CO2 incubator. Cells were seeded at a density of 5 × 10^5 cells/well in 6-well plates. […] Cells’ survival rate was detected by Cell Counting Kit-8 (CCK8) Reagents (Thermo Scientific, Singapore).

[2] = system: PAH activity in AML12 cells; type: cell-based
Method: (§2) Serum biochemical parameters including brain natriuretic peptide (BNP), creatine kinase (CK), lactate dehydrogenase (LDH), alanine aminotransferase (ALT), and aspartate aminotransferase (AST) were measured using commercial ELISA kits (Nanjing Jiancheng Bioengineering Institute, Nanjing, China) according to the manufacturer’s instructions. Superoxide dismutase (SOD), and malondialdehyde (MDA) levels in liver and heart tissues were measured using assay kits from Aifang Biotechnology (Changsha, China). Phenylalanine and tyrosine concentrations in the cell were determined using an ELISA kit from Abmart (Shanghai, China).
as §1

AML12 cells [3] = type: cell-based, mouse; details: AML12 cells, dose-dependent
Method: as §1

[4] = biological target: Phenylalanine hydroxylase (PAH) protein (Homo sapiens, UniProt P00439); assay: Surface Plasmon Resonance (SPR) analysis, Biacore T200; type: binding; details: PAH immobilized on CM5 chip, read-out: dissociation constant (Kd)
Method: SPR assays were conducted using a Biacore T200 system (GE Healthcare Life Sciences, USA). Phenylalanine hydroxylase (PAH) protein was immobilized on CM5 sensor chips using an amine-coupling kit (BR100050, GE Healthcare) following standard procedures. […] Samples were injected over reference and PAH-immobilized flow cells at a flow rate of 30 μL/min, with 120 s contact time and 120 s dissociation time. Kinetic parameters were calculated using Biacore T200 evaluation software.

[5] = biological target: T1, PAH protein in AML12 cells (Mus musculus, UniProt P16331); assay: Cellular Thermal Shift Assay (CETSA); type: cell-based; details: neomangiferin 10 μM, 24 h, 37-72 °C, vs control group
T1 construct: endogenous in cells; host or cells: AML12 mouse hepatocytes
T1 sequence (P16331 1-453): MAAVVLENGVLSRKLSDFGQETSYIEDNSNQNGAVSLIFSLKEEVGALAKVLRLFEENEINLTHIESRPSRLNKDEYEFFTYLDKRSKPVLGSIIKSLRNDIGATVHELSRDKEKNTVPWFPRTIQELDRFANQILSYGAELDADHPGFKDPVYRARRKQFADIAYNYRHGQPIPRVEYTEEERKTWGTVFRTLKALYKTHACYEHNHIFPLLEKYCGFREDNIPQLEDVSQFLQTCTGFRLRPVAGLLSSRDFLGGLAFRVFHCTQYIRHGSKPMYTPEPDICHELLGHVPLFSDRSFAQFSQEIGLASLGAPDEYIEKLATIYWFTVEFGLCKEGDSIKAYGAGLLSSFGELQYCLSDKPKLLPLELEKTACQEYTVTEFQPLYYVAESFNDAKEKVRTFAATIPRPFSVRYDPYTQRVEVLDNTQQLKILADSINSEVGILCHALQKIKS
Method: AML12 cells (5 × 10^5 cells/well) in 6-well plates were divided into two groups, with 8 wells in each group. […] After 24 h, 8 samples of cells from each of the two groups were incubated at specific temperatures (37, 42, 47, 52, 57, 62, 67, and 72 °C) for 3 min and each sample was performed for western blotting analysis.

[6] = system: DOX-induced chronic heart failure (CHF) rat model; assay: Echocardiography (LVEF%, LVFS%) in DOX-induced CHF rats; type: in vivo; details: experiment II, DOX + Phe 280 mg/kg, BH4 14 mg/kg or SXT 16 g/kg vs DOX group
Method: Experiment I, 48 rats were randomly divided into six groups: (1) the CON group; (2) the DOX group; (3) the DOX + enalapril (ENP, positive control, 1.8 mg/kg) group; (4) the DOX + SXT at low dose group (4 g/kg); (5) the DOX + SXT at middle dose group (8 g/kg); and […] the DOX + SXT at high dose group (16 g/kg). Except those rats in the CON group, the remaining rats received DOX at a 2.5 mg/kg per injection to a cumulative dose of 15 mg/kg. The dose of SXT for the low-dose group was set at 4 g/kg, based on the minimum human clinical daily dose (48.5 g, Table S2) converted to an equivalent rat dose using body surface area normalization (48.5 g/70 kg × 6.3 ≈ 4.4 g/kg, rounded to 4 g/kg). To evaluate a clear dose–response relationship, the medium and high doses were established at 8 g/kg and 16 g/kg, respectively, corresponding to 2 fold and 4 fold the low dose. This gradient dosing strategy is consistent with the Technical Guidelines for Pharmacodynamic Studies of Traditional Chinese Medicine and the Technical Guidelines for General Pharmacology Studies of Traditional Chinese Medicine and Natural Drugs, and is further supported by our previous study on the effective dose range of SXT in a rat model of doxorubicin-induced chronic heart failure. Heart function was monitored by echocardiography analysis at day 39, and the CHF model was considered to be successfully established when the left ventricular ejection fraction (LVEF%) values were reduced to 50%. Urinary samples were collected at five time points (0, 10, 20, 30, and 39 d), while fecal samples were collected before the rats were euthanized. Subsequently, the rats were anesthetized, and blood samples and heart and liver tissues were collected. All bio-samples were stored at − 80 °C until analysis.
Experiment II was conducted to specifically confirm the exacerbated cardiac abnormality of phenylalanine in the DOX-induced CHF rats. […] Heart function was detected as in the experiment I.
Echocardiographic (ECG) measurements were performed using M-mode tracings and continuous Doppler with a Vevo 2100 system (Visual Sonics, Toronto, ON, Canada). Rats were anesthetized with isoflurane prior to imaging. Cardiac function indices including left ventricular ejection fraction (LVEF%) and left ventricular fractional shortening (LVFS%) were measured and recorded.

[7] = system: cardiac tissues of DOX-induced CHF rats; assay: Heart histopathology (H&E, Masson) and TUNEL apoptosis detection; type: in vivo, rat; details: experiment II, co-treatment vs DOX group
Method: Cardiac tissues were fixed in 4% paraformaldehyde, embedded in paraffin, and sectioned at 4–5 μm thickness. Hematoxylin and eosin (H&E) staining was performed to assess histopathological changes, while Masson’s trichrome staining was used to evaluate cardiac fibrosis. Apoptosis in cardiac tissues was detected using a TUNEL assay kit (C1088, Beyotime, Shanghai, China).

DOX-induced CHF rats [8] = assay: Serum biochemical parameters (BNP, CK, LDH, ALT, AST) by ELISA kits; type: in vivo, rat; details: experiment II, co-treatment vs DOX group
Method: as §2, with “manufacturer's” for “manufacturer’s”, “Aifang” left out

phenylalanine metabolism = assay: Phenylalanine and tyrosine levels in rat serum, liver and heart tissues (LC/MS); type: in vivo
Method: Phenylalanine and tyrosine in the different rat bio-samples were analyzed by LC/MS using an Agilent 1290 Ultra high-performance liquid chromatography (UHPLC) and an Agilent 6460 triple-quadrupole tandem mass spectrometer (QQQ-MS) (Agilent Inc, USA). Data were acquired by using an Agilent Zorbax SB-C18 column (3.0 × 150 mm, 5 μm) as described previously.

[9] = system: phenylalanine hydroxylase (PAH); assay: PAH expression in liver and heart (western blotting, immunofluorescence); type: in vivo, rat; details: experiment II; DOX vs CON, co-treatments vs DOX
Method: Immunofluorescence staining was performed on tissue sections to detect phenylalanine hydroxylase (PAH), prostaglandin-endoperoxide synthase 2 (PTGS2), and reactive oxygen species (ROS). Primary antibodies against PAH and PTGS2 were used, while ROS was detected using the DCFH-DA probe. Nuclei were counterstained with DAPI. Images were captured using a fluorescence microscope.
Protein was extracted from liver or heart tissue samples (30 mg) using lysis buffer. Total protein concentration was determined using a BCA protein assay kit (Thermo Fisher Scientific, USA). Equal amounts of protein from each sample were separated on 10–12% SDS-PAGE gels and transferred to PVDF membranes. Membranes were blocked with quick blocking buffer for 30 min, then incubated with anti-PAH primary antibody (1:1000 dilution) overnight at 4 °C. After washing, membranes were incubated with a secondary antibody for 1 h at 37 °C. Protein bands were visualized using an Odyssey infrared imaging system (JS-1070, Shanghai Peiqing Science & Technology Co., Ltd, China). Band intensities were quantified using ImageJ software.

DOX-induced CHF rats [10] = assay: Oxidative stress in heart and liver tissue (SOD, MDA, ROS, PTGS2); type: in vivo, rat; details: experiment II
Method: Immunofluorescence staining was performed on tissue sections to detect phenylalanine hydroxylase (PAH), prostaglandin-endoperoxide synthase 2 (PTGS2), and reactive oxygen species (ROS). Primary antibodies against PAH and PTGS2 were used, while ROS was detected using the DCFH-DA probe. Nuclei were counterstained with DAPI. Images were captured using a fluorescence microscope. Serum biochemical parameters including brain natriuretic peptide (BNP), creatine kinase (CK), lactate dehydrogenase (LDH), alanine aminotransferase (ALT), and aspartate aminotransferase (AST) were measured using commercial ELISA kits (Nanjing Jiancheng Bioengineering Institute, Nanjing, China) according to the manufacturer's instructions. Superoxide dismutase (SOD), and malondialdehyde (MDA) levels in liver and heart tissues were measured using assay kits from […] Biotechnology (Changsha, China). Phenylalanine and tyrosine concentrations in the cell were determined using an ELISA kit from Abmart (Shanghai, China).

heart tissues = assay: Transmission electron microscopy of heart tissue; type: in vivo, rat; details: experiment II; DOX alone, co-treatments vs DOX
Method: Freshly excised heart tissues were immediately fixed in 2.5% glutaraldehyde at 4 °C overnight. After washing with 0.1 M cacodylate trihydrate buffer, samples were post-fixed with 1% osmium tetroxide for 1 h. Tissues were then dehydrated through a graded ethanol series, incubated in acetone, and embedded in epoxy resin. Ultrathin sections were mounted on copper grids and imaged using a Hitachi HT7800 transmission electron microscope (Tokyo, Japan).

H9C2 cells = assay: Effect of phenylalanine on doxorubicin-induced H9C2 cells; type: cell-based; details: DOX 1 µM + Phe 18.5 µM, 24 h
Method: H9C2 cells were seeded in 96-well plates at a density of 5 × 10⁴ cells per well (in 100 µL medium) and allowed to adhere for 12 h. The cells were then treated for 24 h with either DOX (1 µM) alone or DOX (1 µM) in combination with Phe (18.5 µM; a concentration derived from the dosing conversion ratio used in prior rat experiments). An untreated group served as the control. Cell viability was determined by measuring the optical density at 450 nm using a microplate reader. The levels of CK, LDH, SOD, and MDA were quantified using commercial assay kits.

[11] = DOX + phenylalanine vs DOX group

Phenylalanine hydroxylase (PAH) protein, sequence (P00439 whole entry): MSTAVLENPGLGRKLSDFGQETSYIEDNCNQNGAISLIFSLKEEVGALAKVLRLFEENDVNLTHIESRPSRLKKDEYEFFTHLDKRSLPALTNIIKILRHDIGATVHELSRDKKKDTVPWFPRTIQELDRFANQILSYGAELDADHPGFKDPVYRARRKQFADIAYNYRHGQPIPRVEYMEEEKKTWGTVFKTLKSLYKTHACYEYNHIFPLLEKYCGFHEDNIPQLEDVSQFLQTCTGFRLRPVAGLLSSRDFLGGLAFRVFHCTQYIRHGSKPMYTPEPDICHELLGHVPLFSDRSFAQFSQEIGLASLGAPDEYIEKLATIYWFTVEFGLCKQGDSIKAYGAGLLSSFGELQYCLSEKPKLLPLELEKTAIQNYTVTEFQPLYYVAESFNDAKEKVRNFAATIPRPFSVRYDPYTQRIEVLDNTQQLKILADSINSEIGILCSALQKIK

pKd [4]	thermal stability of PAH protein (CETSA) [5]	Structure (SMILES)	non-cytoxic concentration (AML12 cells [1]) [µM]	DOX-induced AML12 cell viability (AML12 cells [1]; DOX 1 µM, 24 h, three concentrations of compound)	PAH activity (enzyme activity assay) [2]	phenylalanine levels in AML12 cells increased by DOX ([2]; BH4 10 μM, timosaponin B-II, neomangiferin, anemarrhenasaponin I 5, 10, 20 μM, timosaponin AIII 0.1, 0.2, 0.5 μM)	DOX-induced oxidative stress (SOD, MDA) (AML12 cells [3])	LVEF and LVFS / DOX-induced cardiac dysfunction [6]	DOX-induced cardiac injury and collagen accumulation (H&E and Masson) [7]	DOX-induced increases in serum levels of BNP, CK, LDH, ALT and AST (DOX-induced CHF rats [8])	serum phenylalanine concentration (phenylalanine metabolism; experiment II, DOX + phenylalanine 280 mg/kg, BH4 14 mg/kg or SXT 16 g/kg) [µM]	increase in serum phenylalanine levels (phenylalanine metabolism; oral phenylalanine, compared to the DOX group) [%]	PAH expression in heart tissue [9]	PAH expression in liver tissue [9]	hepatic and cardiac MDA (DOX-induced CHF rats [10]; [11])	hepatic and cardiac SOD activity (DOX-induced CHF rats [10]; [11])	ROS production and PTGS2 expression in the heart (DOX-induced CHF rats [10]; co-treatment with DOX)	mitochondrial ultrastructure of heart (electron microscopy) (heart tissues)	DOX-induced cardiotoxicity in H9C2 cells (cell viability, SOD, CK, LDH, MDA) (H9C2 cells)
5.24 and > 5.00	better thermal stability	O=c1c2cc(O[C@@H]3O[C@H](CO)[C@@H](O)[C@H](O)[C@H]3O)c(O)cc2oc2cc(O)c([C@@H]3O[C@H](CO)[C@@H](O)[C@H](O)[C@H]3O)c(O)c12 [Neomangiferin]	5 to 20	alleviated	significantly increase	significantly reduce	alleviated												
		N[C@@H](Cc1ccccc1)C(=O)O [phenylalanine]						lower	exacerbated	largely promoted	100.715	16.92	further exacerbated	further exacerbated	marked MDA elevation	pronounced suppression	upregulating	more pronounced	exacerbated
